Here are results for 25 compounds from patent publication US7544675B2, “Chemical compounds with dual activity, processes for their preparation and pharmaceutical compositions” (UCB, S.A., priority 2002, dated 2009).

Test [1] has as its target T1, human m3 muscarinic receptor (Homo sapiens, UniProt P20309).
T1 construct: expressed in transfected cells; host or cells: CHO (Chinese Hamster Ovarian) cells, crude membrane fraction
Kind of test: Affinity for human muscarinic receptors ([3H]-NMS binding, CHO cell membranes). The conditions noted are these: qualitative statement. As to the method:
Chinese Hamster Ovarian cells (CHO) expressing the human recombinant m1, m2, m3, m4 and m5 receptors were cultured in Ham's F12 media supplemented with 100 IU/ml of penicillin, 100 μg/ml of streptomycin, 400 μg/ml of geneticin and 5% of fetal bovine serum. Cell cultures were maintained in a humidified incubator at 37° C. and 5% CO2.
Confluent CHO cells expressing human m1, m2, m3, m4 and m5 muscarinic receptors were harvested and resuspended in phosphate buffered saline without calcium and magnesium. The cell suspension was centrifuged at 1500×g for 3 min (4° C.). The cell pellet was homogenized in a 15 mM Tris-HCl (pH 7.5) buffer containing 2 mM MgCl2, 0.3 mM EDTA and 1 mM EGTA. The crude membrane fraction was collected by two consecutive centrifugation steps at 40,000×g for 25 min (4° C.). The final pellet was resuspended, at a protein concentration ranging from 2 to 6 mg/ml, in a 7.5 mM Tris-HCl (pH 7.5) buffer containing 12.5 mM MgCl2, 0.3 mM EDTA, 1 mM EGTA and 250 mM sucrose and stored in liquid nitrogen.
Binding assays were performed according to procedure described in: Buckley N. J., Bonner T. I., Buckley C. M., Brann M. R., Mol. Pharmacol. (1989), 35, 469-476, but with slight modifications.
Briefly, 25 to 50 μg of membrane proteins were incubated at room temperature in 1 ml of a 50 mM Tris-HCl (pH 7.4) buffer containing 2 mM of MgCl2, 0.1 nM of [^3H]-NMS (N-methylscopolamine, 85 Ci/mmol, from Apbiotech, UK) and increasing concentrations of test compound dissolved in DMSO (1% final concentration). Non specific binding was measured in the presence of 1 μM atropine. After 60 (m2) or 120 (m3) min. incubation, assays were stopped by rapid vacuum filtration of the samples through glass fiber filters (Filtermat A, Wallac, Belgium) presoaked in 0.3% polyethyleneimine for at least 2 h. Samples were further rinsed with 8 ml of ice-cold 50 mM Tris-HCl (pH 7.4) buffer. Radioactivity trapped onto the filter was counted in a Betaplate counter (Wallac). Competition binding curves were analyzed by non-linear regression with XLfit software (UDBS, UK).

For test [2], the system named is PDE IV. Kind of test: PDE IV enzymatic activity (SPA phosphodiesterase assay, cytosolic fraction from U937 cells). The conditions noted are these: qualitative statement. The class given is biochemical. As to the method:
Cytosolic fraction from U937 cells pre-stimulated for 4 h at 37° C. with a mixture of rolipram 30 μM and salbutamol 1 μM (Torphy T. J., Zhou H. L., Cieslinski L. B., J. Pharmacol. Exp. Ther. (1992), 263 (3), 1195-1205).
Assays were performed in 100 μL of 50 mM Tris HCl buffer (pH 7.4) containing 5 mM MgCl2, 2 mM EGTA, 20 nM of [^3H]-cAMP (40-60 Ci/mmol), the cytosolic fraction of 50,000 U937 cells and the appropriate concentration of test compound (usually 10 μM) dissolved in DMSO (final assay concentration not exceeding 1%). After 30 min incubation at room temperature, 0.5 mg of SPA yttrium silicate beads are added to each sample. Radioactivity bound to the beads (5′-AMP) is determined by liquid scintillation. Non PDE IV activity and/or non specific binding of the labeled substrate to the SPA beads is defined as the residual radioactivity remaining in the presence of rolipram 32 μM (non PDE IV activity represents about 40% of total activity). PDE IV activity is determined by subtracting the non PDE TV activity from the total activity.

T1 sequence (P20309 whole entry): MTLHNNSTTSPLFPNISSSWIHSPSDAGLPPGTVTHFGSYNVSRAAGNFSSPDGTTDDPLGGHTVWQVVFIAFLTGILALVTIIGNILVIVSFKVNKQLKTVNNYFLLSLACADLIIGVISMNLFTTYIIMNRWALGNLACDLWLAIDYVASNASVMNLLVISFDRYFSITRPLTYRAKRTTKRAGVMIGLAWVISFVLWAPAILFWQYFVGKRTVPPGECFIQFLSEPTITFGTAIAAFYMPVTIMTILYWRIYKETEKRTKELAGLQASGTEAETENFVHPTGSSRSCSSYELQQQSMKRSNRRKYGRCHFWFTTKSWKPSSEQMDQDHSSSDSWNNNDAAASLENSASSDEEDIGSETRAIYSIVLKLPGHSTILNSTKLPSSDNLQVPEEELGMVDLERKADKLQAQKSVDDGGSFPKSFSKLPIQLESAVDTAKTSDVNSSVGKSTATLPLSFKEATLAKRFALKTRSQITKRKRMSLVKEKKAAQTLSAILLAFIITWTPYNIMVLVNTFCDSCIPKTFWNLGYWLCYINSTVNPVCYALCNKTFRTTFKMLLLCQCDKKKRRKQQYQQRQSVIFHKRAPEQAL

Take `Fc1c(NC2CC2)nc(C2CC2)nc1N1CCCCCC1` [Compound 60, 6-(1-azepanyl)-N,2-dicyclopropyl-5-fluoro-4-pyrimidinamine]: in test [1], the “Dual high affinities: m3 receptor part” value is recorded as “high affinities”. Further, the “Dual high affinities: PDE IV part” value in test [2] was “high affinities”.
On to `c1c(NC2CC2)nc(C2CC2)nc1N1CCCCCC1` [Compound 62, 6-(1-azepanyl)-N,2-dicyclopropyl-4-pyrimidinamine], for which the “Dual high affinities: m3 receptor part” value in test [1] is “high affinities”. In addition, in test [2], the “Dual high affinities: PDE IV part” value is “high affinities”.
With `Cc1c(NC2CC2)nc(C2CC2C)nc1N1CCCCCC1` (single isomer, unassigned) [Compound 67, 6-(1-azepanyl)-N-cyclopropyl-5-methyl-2-(2-methylcyclopropyl)-4-pyrimidinamine], in test [1], the “Dual high affinities: m3 receptor part” value was “high affinities”. Moreover, the “Dual high affinities: PDE IV part” value in test [2] is “high affinities”.
Consider `Cc1c(NC2CC2)nc(C2CC2)nc1N1CCC(C)(C)CC1` [Compound 79, N,2-dicyclopropyl-6-(4,4-dimethyl-1-piperidinyl)-5-methyl-4-pyrimidinamine], for which the “Dual high affinities: m3 receptor part” value in test [1] is given as “high affinities”. Besides, the “Dual high affinities: PDE IV part” value in test [2] is reported as “high affinities”.
In the case of `Cc1c(NC2CC2)nc(C2CC2)nc1N1CCSCC1` [Compound 119, N,2-dicyclopropyl-5-methyl-6-(4-thiomorpholinyl)-4-pyrimidinamine], in test [1], the “Dual high affinities: m3 receptor part” value is “high affinities”. In addition, in test [2], the “Dual high affinities: PDE IV part” value is given as “high affinities”.
In the case of `Cc1c(NC2CC2)nc(C2CC2)nc1N1CC2CCC(C2)C1` [Compound 115, 6-(3-azabicyclo[3.2.1]oct-3-yl)-N,2-dicyclopropyl-5-methyl-4-pyrimidinamine], the “Dual high affinities: m3 receptor part” value in test [1] is reported as “high affinities”. The “Dual high affinities: PDE IV part” value in test [2] is given as “high affinities”.
As to `Cc1c(NC2CC2)nc(C2CCCC2)nc1N1CCCCCC1` [Compound 154, 6-(1-azepanyl)-2-cyclopentyl-N-cyclopropyl-5-methyl-4-pyrimidinamine], the “Dual high affinities: m3 receptor part” value in test [1] is on record as “high affinities”. The “Dual high affinities: PDE IV part” value in test [2] is on record as “high affinities”.
As to `C1CCCN(c2nc(C3CC3)nc3c2CCCN3)CC1` [Compound 155, 4-azepan-1-yl-2-cyclopropyl-5,6,7,8-tetrahydro-pyrido[2,3-d]pyrimidine], the “Dual high affinities: m3 receptor part” value in test [1] was “high affinities”. For the same compound, the “Dual high affinities: PDE IV part” value in test [2] is listed as “high affinities”.
Regarding `Cc1c(N2CCCCCC2)nc(C2CC2)nc1N1CC(O)C1` [Compound 189, 1-(6-azepan-1-yl-2-cyclopropyl-5-methylpyrimidin-4-yl)azetidin-3-ol], in test [1], the “Dual high affinities: m3 receptor part” value is listed as “high affinities”. In addition, in test [2], the “Dual high affinities: PDE IV part” value was “high affinities”.
With `Cc1c(NC2CC2)nc(C2CCC2)nc1N1CCCCCC1` [Compound 55, 6-(1-azepanyl)-2-cyclobutyl-N-cyclopropyl-5-methyl-4-pyrimidinamine], the “Dual high affinities: m3 receptor part” value in test [1] is “high affinities”. For the same compound, the “Dual high affinities: PDE IV part” value in test [2] was “high affinities”.
For the compound `C=C1CCN(c2nc(C3CC3)nc(NC3CC3)c2C)CC1` [Compound 106, N,2-dicyclopropyl-5-methyl-6-(4-methylene-1-piperidinyl)-4-pyrimidinamine], in test [1], the “Dual high affinities: m3 receptor part” value was “high affinities”. In addition, the “Dual high affinities: PDE IV part” value in test [2] is recorded as “high affinities”.
Regarding `CCC1CCN(c2nc(C3CC3)nc(NC3CC3)c2C)CC1` [Compound 86, N,2-dicyclopropyl-6-(4-ethyl-1-piperidinyl)-5-methyl-4-pyrimidinamine], the “Dual high affinities: m3 receptor part” value in test [1] is listed as “high affinities”. Further, in test [2], the “Dual high affinities: PDE IV part” value is “high affinities”.
For the compound `Nc1c(NC2CC2)nc(C2CC2)nc1N1CCCCCC1` [Compound 63, 6-(1-azepanyl)-N^4,2-dicyclopropyl-4,5-pyrimidinediamine], in test [1], the “Dual high affinities: m3 receptor part” value is “high affinities”. Besides, the “Dual high affinities: PDE IV part” value in test [2] is given as “high affinities”.
As for `Cc1c(NC2CC2)nc(C2CC2)nc1N1CC2CCC(CC2)C1` [Compound 176, 6-(3-azabicyclo[3.2.2]non-3-yl)-N,2-dicyclopropyl-5-methyl-4-pyrimidinamine], the “Dual high affinities: m3 receptor part” value in test [1] was “high affinities”. In test [2], the “Dual high affinities: PDE IV part” value is reported as “high affinities”.
Regarding `c1c(N2CCCCCC2)nc(C2CC2)nc1N1CCC1` [Compound 192, 1-(6-azetidin-1-yl-2-cyclopropylpyrimidin-4-yl)azepane], in test [1], the “Dual high affinities: m3 receptor part” value was “high affinities”. The “Dual high affinities: PDE IV part” value in test [2] was “high affinities”.
For `Cc1c(N2CCCCCC2)nc(C2CC2)nc1N1CC(F)C1` [Compound 194, 1-[2-cyclopropyl-6-(3-fluoroazetidin-1-yl)-5-methylpyrimidin-4-yl]azepane], the “Dual high affinities: m3 receptor part” value in test [1] is recorded as “high affinities”. Besides, the “Dual high affinities: PDE IV part” value in test [2] is “high affinities”.
For `Cc1c(NC2CC2)nc(C(C)C)nc1N1CCCCCC1` [Compound 64, 6-(1-azepanyl)-N-cyclopropyl-2-isopropyl-5-methyl-4-pyrimidinamine], the “Dual high affinities: m3 receptor part” value in test [1] is given as “high affinities”. In test [2], the “Dual high affinities: PDE IV part” value is listed as “high affinities”.
With `Cc1c(NC2CC2)nc(C2CC2)nc1N1CCCC1` [Compound 180, N,2-dicyclopropyl-5-methyl-6-(1-pyrrolidinyl)-4-pyrimidinamine], in test [1], the “Dual high affinities: m3 receptor part” value is on record as “high affinities”. The “Dual high affinities: PDE IV part” value in test [2] is on record as “high affinities”.
With `Cc1c(N2CCCCCC2)nc(C2CC2)nc1N1CCC1` [Compound 184, 1-(6-azetidin-1-yl-2-cyclopropyl-5-methylpyrimidin-4-yl)azepane], in test [1], the “Dual high affinities: m3 receptor part” value is reported as “high affinities”. Moreover, the “Dual high affinities: PDE IV part” value in test [2] is “high affinities”.
Turning to `Cc1c(NC2CC2)nc(C2CC2)nc1N1CCC(C)CC1` [Compound 95, N,2-dicyclopropyl-5-methyl-6-(4-methyl-1-piperidinyl)-4-pyrimidinamine], the “Dual high affinities: m3 receptor part” value in test [1] was “high affinities”. The “Dual high affinities: PDE IV part” value in test [2] was “high affinities”.
`Cc1c(NC2CC2)nc(C2CC2)nc1N1CCC(C(F)(F)F)CC1` [Compound 77, N,2-dicyclopropyl-5-methyl-6-[4-(trifluoromethyl)piperidin-1-yl]-4-pyrimidinamine]: in test [1], the “Dual high affinities: m3 receptor part” value is “high affinities”. For the same compound, in test [2], the “Dual high affinities: PDE IV part” value is on record as “high affinities”.
On to `Cc1c(N2CCCCCC2)nc(C2CC2)nc1N1CC(C)C1` [Compound 185, 1-[2-cyclopropyl-5-methyl-6-(3-methylazetidin-1-yl)pyrimidin-4-yl]azepane], for which the “Dual high affinities: m3 receptor part” value in test [1] is “high affinities”. Further, the “Dual high affinities: PDE IV part” value in test [2] was “high affinities”.
For `Cc1c(NC2CC2)nc(C2CC2)nc1N1CCC(F)(F)CC1` [Compound 78, N,2-dicyclopropyl-6-(4,4-difluoro-1-piperidinyl)-5-methyl-4-pyrimidinamine], the “Dual high affinities: m3 receptor part” value in test [1] is reported as “high affinities”. Further, the “Dual high affinities: PDE IV part” value in test [2] is “high affinities”.
With `Cc1c(NC2CC2)nc(C2CC2)nc1N1CCCCC1` [Compound 175, N,2-dicyclopropyl-5-methyl-6-(1-piperidinyl)-4-pyrimidinamine], the “Dual high affinities: m3 receptor part” value in test [1] is recorded as “high affinities”. Besides, the “Dual high affinities: PDE IV part” value in test [2] was “high affinities”.
As to `Cc1c(NC2CC2)nc(C2CC2)nc1N1CCCCCC1` [Compound 56, 6-(1-azepanyl)-N,2-dicyclopropyl-5-methyl-4-pyrimidinamine], the “Dual high affinities: m3 receptor part” value in test [1] was “high affinities”. For the same compound, in test [2], the “Dual high affinities: PDE IV part” value is listed as “high affinities”.
